Source: paper PMC11627468, “Novel enzyme‐resistant pancreatic polypeptide analogs evoke pancreatic beta‐cell rest, enhance islet cell turnover, and inhibit food intake in mice” (Biofactors (Oxford, England), 2024)
Starred links: 1 amine or outer side, 2 acyl side, 3 side chain; linkers in the order of their positions; H or OH if unused. Residues, ends and D or L forms follow the SMILES beside them. Groups on a side chain read outwards from the residue. *: point of attachment. γGlu = O=C(O)[C@H](CCC(=O)[*:2])N[*:1]; Palmitoyl = CCCCCCCCCCCCCCCC(=O)*

How the values were obtained:
[1] = In vitro DPP‐4 degradation; format: in vitro ADME, human; details: isolated enzyme; peptide 50 μg with purified human DPP‐4 (5 μL, 0.01 U/L), 37°C, 8 h; stopped with 10% (v/v) trifluoroacetic acid; rp‐HPLC C‐18, UV 214 nm; peaks by MALDI‐MS; read-out: % intact peptide after 8 h DPP‐4 incubation
Method: PP peptides (50 μg) were incubated at 37°C for 0–8 h with 5 μL of purified human DPP‐4 enzyme (0.01 U/L, Sigma‐Aldrich, Gillingham, UK). Degradation reactions were terminated via the addition of 10 μL 10% (v/v) trifluoroacetic acid/water solution. Reaction mixes were separated by reverse phase rp‐HPLC using a Phenomenex C‐18 analytical column (250 × 4.6 mm^2) with UV absorbance detection at 214 nm (ThermoQuest SpectraSystem UV2000 detector). HPLC peaks of interest were collected and analyzed by MALDI‐TOF MS on a Perseptive Biosystems Voyager‐DE Biospectrometry (Hertfordshire, UK).

C57BL/6 mice [2] = test: Acute food intake in overnight fasted mice; format: in vivo; details: i.p., overnight fasted mice
Method: (§1) Acute in vivo studies were conducted in groups (n = 6) of 4‐month‐old male C57BL/6 mice (Envigo, Huntington, UK). All mice were maintained on standard rodent chow (10% fat, 30% protein, and 60% carbohydrate; Trouw Nutrition, Northwich, UK), and drinking water provided ad libitum. Mice were housed individually and kept in a temperature‐controlled environment (22 ± 2°C), with a 12‐h light/dark cycle. Experiments were carried out in accordance with the UK Animal Scientific Procedures Act 1986 as well as being approved by Ulster University Animal Ethics Review Committee (AWERB) committee and protected by the UK Home Office Animal project license number PPL2902, approved on April 26, 2021. Acute effects of test peptides on food intake were tested in overnight (16 h) fasted mice. Briefly, fasted mice were administered an intraperitoneal (i.p.) injection of saline vehicle (0.9% (w/v) NaCl) alone or in combination with test peptides (each at 25, 75, or 200 nmol/kg bw) and cumulative food intake measured at regular intervals, to assess the pharmacodynamic profile of the test peptides. For food intake studies, mice were provided with preweighed rodent maintenance diet in their food hopper at t = 0 min, which was then re‐weighed at each timepoint with all due care taken to account for any wastage or crumbling of the food pellets. In this regard, the investigator was present at all times during the 180‐min test period to ensure accuracy and consistency in all measurements. Furthermore, effects of PP or related peptides (25 nmol/kg bw) on glucose homeostasis and insulin secretion were evaluated in overnight fasted mice following i.p. injection of glucose alone (18 mmol/kg bw) or in combination with PP peptides (each at 25 nmol/kg bw).

C57BL/6 mice [3] = test: Glucose tolerance in mice; format: in vivo; details: PP peptide 25 nmol/kg with CCK‐8 25 nmol/kg and glucose 18 mmol/kg i.p.; n = 6
Method: as §1, with “bw). […] Blood glucose was measured immediately using a hand‐held Ascencia Contour blood glucose meter (Bayer Healthcare, Newbury, Berkshire, UK). […]” for “bw).”

C57BL/6 mice [4] = test: Glucose‐stimulated plasma insulin in mice; format: in vivo; details: peptide 25 nmol/kg with glucose 18 mmol/kg i.p., versus glucose control; n = 6
Method: as §1, with “bw). […] Blood glucose was measured immediately using a hand‐held Ascencia Contour blood glucose meter (Bayer Healthcare, Newbury, Berkshire, UK). For plasma insulin, blood was collected in chilled fluoride/heparin‐coated microcentrifuge tubes (Sarstedt, Numbrecht, Germany) and centrifuged using a Beckman microcentrifuge (Beckman Instruments, Galway, Ireland) for 10 min at 12,000 rpm. Plasma was separated and stored at −20°C, until determination of plasma insulin by radioimmunoassay.[23]” for “bw).”

SMILES: CCCCCCCCCCCCCCCC(=O)N[C@@H](CCC(=O)NCCCC[C@H](NC(=O)[C@H](C)NC(=O)[C@H](CC(N)=O)NC(=O)[C@H](CC(=O)O)NC(=O)CNC(=O)[C@@H]1CCCN1C(=O)[C@H](Cc1ccc(O)cc1)NC(=O)[C@@H](NC(=O)[C@@H]1CCCN1C(=O)[C@H](CCC(=O)O)NC(=O)[C@@H]1CCCN1C(=O)[C@@H]1CCCN1C(=O)[C@H](C)N)C(C)C)C(=O)N1CCC[C@H]1C(=O)N[C@@H](CCC(=O)O)C(=O)N[C@@H](CCC(N)=O)C(=O)N[C@@H](CCSC)C(=O)N[C@@H](C)C(=O)N[C@@H](CCC(N)=O)C(=O)N[C@@H](Cc1ccc(O)cc1)C(=O)N[C@@H](C)C(=O)N[C@@H](C)C(=O)N[C@@H](CC(=O)O)C(=O)N[C@@H](CC(C)C)C(=O)N[C@@H](CCCNC(=N)N)C(=O)N[C@@H](CCCNC(=N)N)C(=O)N[C@@H](Cc1ccc(O)cc1)C(=O)N[C@H](C(=O)N[C@@H](CC(N)=O)C(=O)N[C@@H](CCSC)C(=O)N[C@@H](CC(C)C)C(=O)N[C@H](C(=O)N[C@@H](CCCNC(=N)N)C(=O)N1CCC[C@H]1C(=O)N[C@@H](CCCNC(=N)N)C(=O)N[C@@H](Cc1ccc(O)cc1)C(N)=O)[C@@H](C)O)[C@@H](C)CC)C(=O)O [[P^3,K^13Pal]PP] (H-APPEPVYPGDNAK([γGlu-Palmitoyl])PEQMAQYAADLRRYINMLTRPRY-NH2; N-terminus assumed)
- remaining at 8 h [1]: > 99%
- food intake in overnight fasted mice, summary in discussion (C57BL/6 mice [2]): retained impressive effects to restrict food intake
- effect on CCK‐8 benefit on glucose disposal (C57BL/6 mice [3]): mildly impair the overall glucose‐lowering action of CCK‐8
- glucose‐induced insulin secretion (plasma insulin) (C57BL/6 mice [4]): slightly decreasing (p = <0.05 to 0.01)
